Assay results published in patent publication US20230157935A1, “GADUSOL-CONTAINING SUNSCREEN FORMULATIONS” (Arcaea, LLC, priority 2021, published 2023).

Experiments:
[1] = tested on: E. coli; assay: Toxicity towards E. coli; assay type: cell-based
From the text: (§1) The amount of gadusol incorporated to provide the intended in vivo sunscreen SPF boosting activity can be from about 0.25, 0.50, 0.75, 1.0, 1.25, 1.50, 1.75, or 2.0% (w/w) in the sunscreen formulation that includes a physical/inorganic sunscreen active material, where any value can form an upper or lower endpoint, as appropriate. Still further, the amount of gadusol in the sunscreen formulation can be from about 0.25 to 2.0% (w/w), or from about 0.5 to 1.0% (w/w). In these, and possibly other amounts, gadusol suitably can provide a safe and effective sunscreen boosting effect when combined with sunscreen active ingredients. […] To summarize these safety tests, the cellular toxicity of gadusol was compared to that of a common sunscreen ingredient, oxybenzone. Vero E6 fibroblasts were used to evaluate toxicity. […] Toxicity towards E. coli was also not found.

[2] = tested on: human skin (subject's back); assay: In vivo SPF determination (FDA 21 CFR 201.327, MEDp/MEDu)
From the text: SPF can be measured in vivo according to the methodology set out in FDA 2011 Final Rule issued on Jun. 17, 2011, by the Federal Register. This method is very similar to the ISO 24444:2010 method used to measure SPF in the EU, as well as other countries. In fact, both methods are based on the International Sun Protection Factor (SPF) test method, COLIPA: Bruxelles, Belgium, 2006. The slight differences between the ISO and FDA methods are understood to generate no meaningful difference in the results. […] The main differences between the methods are the following: the calibration times of the UV source (each 12 months for the FDA, each 18 months for the ISO); the reference sunscreen products (P2 for the FDA and P2, P3 or P7 for the ISO); progressions of exposure times used. The disclosures of each of these in vivo SPF testing methods are incorporated herein their entirety by this reference.
The product is then labeled with the appropriate SPF value indicating the amount of sunburn protection provided by the product.
An in vivo SPF determination was conducted according to FDA, 21 CFR Sec. 201.327, subpart (i), SPF Test Procedure, Sunscreen Drug Products for Over-the-Counter Human Use, Final Monograph, Federal Register, Vol. 76, No. 117, Jun. 17, 2011, the disclosure of which is incorporated herein in its entirety by this reference. […]
For a baseline value, a series of 5 UV radiation doses expressed as Joules/square meter, increasing in 25% increments, was administered to two unprotected separate locations on each test subject's back, just below the shoulder blades and above the belt-line, to determine the initial unprotected MED (MEDu).
On Day 2, subjects returned to the testing laboratory within 16 to 24 hours following completion of the MEDu doses for evaluation of their responses, and to determine each subject's unprotected MED (MEDu). A subject's Minimal Erythemal Dose (MED) was the quantity of erythema effective energy, or dose corresponding to the first site that produced the first unambiguous erythema reaction with well-defined borders. […]

[3] = tested on: erythrocytes; assay: Cell-based antioxidant protection in erythrocytes (CAP-e) assay
Experimental: The cell-based antioxidant protection in erythrocytes (CAP-e) assay (Honzel et. al., 2008, and Jensen G S. Cell-based antioxidant protection assay, also disclosed in U.S. Pat. No. 8,465,988, incorporated herein in its entirety by this reference) was used. This testing was selected to measure antioxidant power but, in addition, the method ensures that the antioxidant agent crosses the cell's lipid boundary layer so that only intracytoplasmic activity is measured. […] The tested concentrations for both gadusol and the porphyra-334 ranged from 0.001 to 3.33 mg/mL.

[4] = Folin-Ciocalteu antioxidant capacity; conditions: about 0.3 to 10 mg/ml
[5] = Comet assay; assay type: cell-based
From the text: as §1

[6] = Ames Test; assay type: cell-based
[7] = In vitro SPF determination on VitroSkin, absorbance scan 290-400 nm; assay type: physicochemical
Experimental: SPF can also be evaluated using an in vitro method that utilizes a synthetic/simulated skin as a test substrate. In this regard, VitroSkin® is an advanced testing substrate that effectively mimics the surface properties of human skin. It has been formulated to have topography, pH, critical surface tension, chemical reactivity and ionic strength that is similar to human skin.
SPF was also evaluated using an in vitro method that utilizes a synthetic/simulated skin as a test substrate. In this regard, VitroSkin® is an advanced testing substrate that effectively mimics the surface properties of human skin. It has been formulated to have topography, pH, critical surface tension, chemical reactivity and ionic strength that is similar to human skin. The procedure for in vitro testing was conducted according to a standard protocol. For testing, the test product was applied in a known amount to the substrate at an application density of 2 mg/cm^2. The in vitro SPF scores were determined using a Labsphere UV-1000 Ultraviolet Transmittance Analyzer. Spectral scans of absorbance of the artificial skin treated with a sample sunscreen formulation were performed in the UV region of 290-400 nm. The in vitro SPF was then calculated using the absorbance scan results. At least 5 in vitro SPF values were recorded for each example formulation and the averages calculated for reporting.

[8] = tested on: Vero E6 fibroblasts; assay: Cellular toxicity compared to oxybenzone; assay type: cell-based
From the text: as §1

[9] = Stability of aqueous gadusol under acidic conditions, spectrophotometric at 296 nm; assay type: physicochemical
Experimental: Yet further, the inventors have determined that the stability of aqueous gadusol can be improved when stored under acidic conditions. For example, 90% gadusol activity can be retained after 90 days at pH 2.5, where the concentration of gadusol is determined spectrophotometrically at 296 nm where it has an extinction coefficient of 21,800 M^−1cm^−1. A standardized concentration curve can be used to determine an amount of gadusol in a volume sampled from a test solution at various time periods. Therefore, storage under acidic conditions may be useful for stabilizing gadusol generally, e.g., prior to introduction into a topical formulation. Combining gadusol with another antioxidant may be useful for extending the shelf life or stability of gadusol in a topical formulation.

SMILES | toxicity towards E. coli [1] | in vivo SPF relative to SPF conferred by 10% ZnO alone ([2]; 0.5% gadusol (w/w) in 10% ZnO formulation) | in vivo SPF relative to SPF conferred by 10% ZnO alone ([2]; 0.75% gadusol (w/w) in 10% ZnO formulation) [times] | in vivo SPF relative to SPF conferred by 10% ZnO alone ([2]; 1.0% gadusol (w/w) in 10% ZnO formulation) [times] | antioxidant activity ([3]; 0.133 mg/ml) | antioxidant activity versus porphyra-334 ([3]; about 1 mg/ml) | antioxidant power versus mycosporine compound from nori seaweed (porphyra-334) [4] | toxicity in the comet assay [5] | mutagenicity [6] | in vitro SPF activity of gadusol by itself, formulation matrix (1.1) subtracted ([7]; 0.25-0.5% gadusol, no ZnO) | greater SPF when added to composition containing 10% ZnO ([7]; 0.5% (w/w) gadusol, in vitro) [%] | in vitro absorbance on addition to 10% ZnO sunscreen formulation ([7]; 0.5% gadusol, about 290 to about 325 nm, FIG. 6) | cellular toxicity [8] | gadusol activity retained ([9]; aqueous, after 90 days at pH 2.5) [%] | extinction coefficient ([9]; at 296 nm) | interference with the protective action of gadusol when combined ([3]; gadusol and porphyra-334 combined)
COC1=C(O)CC(O)(CO)C(O)C1=O (stereo not shown) [gadusol] | not found | about 1.35 times | ~1.51 | ~2.0 | Some in vivo antioxidant activity | significantly more active | substantially equivalent | nor was it toxic | not to be mutagenic | 2.5-2.8 SPF units | ~50 | significantly more absorbance | less toxic | 90 | 21,800 M^−1cm^−1 | –
COC1=C(NCC(=O)O)C[C@@](O)(CO)CC1=N[C@H](C(=O)O)[C@@H](C)O [porphyra-334, reference compound] | – | – | – | – | – | – | – | – | – | – | – | – | – | – | – | did not interfere
